# According to article PMC4516937 (Toxins, 2015):
# Biological target: T1, OsUGT79 (Oryza sativa, UniProt Q7XT97)
# T1 construct: gene UGT79
# T1 sequence (Q7XT97 1-466): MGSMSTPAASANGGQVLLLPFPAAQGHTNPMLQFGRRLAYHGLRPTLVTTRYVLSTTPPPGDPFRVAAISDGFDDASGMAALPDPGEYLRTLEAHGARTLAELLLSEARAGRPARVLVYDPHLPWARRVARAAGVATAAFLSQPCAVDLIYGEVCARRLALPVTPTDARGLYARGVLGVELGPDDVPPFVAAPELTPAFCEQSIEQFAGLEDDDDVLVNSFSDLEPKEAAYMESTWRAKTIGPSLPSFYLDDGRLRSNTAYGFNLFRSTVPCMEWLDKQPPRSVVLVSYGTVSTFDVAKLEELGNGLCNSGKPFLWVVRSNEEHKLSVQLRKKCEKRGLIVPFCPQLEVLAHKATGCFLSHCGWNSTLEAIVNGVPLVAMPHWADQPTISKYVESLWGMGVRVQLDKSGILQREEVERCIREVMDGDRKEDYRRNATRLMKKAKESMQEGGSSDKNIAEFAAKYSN
# Experiment: glucosylation assay of purified recombinant enzyme with HPLC-MS/MS ([…] DON/[…] UDP-glucose)
# Format: biochemical
structure (smiles),measurement,value
O=c1ccn([C@@H]2O[C@H](COP(=O)(O)OP(=O)(O)O)[C@@H](O)[C@H]2O)c(=O)[nH]1 [UDP],IC50,~1500 µM
